Entries after “also recorded” stand apart in the source; their conditions may differ. Like-named read-outs stand apart in the source and are kept apart here.
What was measured:
[1] = biological target: T1, binding of SARS-CoV-2 Spike protein (S1 subunit) to ACE2 (UniProt P0DTC2+Q9BYF1); assay: biochemical
T1 construct: a fusion protein of the SARS-CoV-2 spike protein S1 subunit and the horseradish peroxidase (HRP) enzyme

[2] = tested on: SARS-CoV-2 USA-WA1/2020 virus; assay type: cell-based
[3] = tested on: SARS-CoV-2-infected permissive cell lines (Vero E6, Huh-7.5, A549 ACE2+, HT1080 ACE2+)

T1 sequence (Q9BYF1 18-740, one chain of several): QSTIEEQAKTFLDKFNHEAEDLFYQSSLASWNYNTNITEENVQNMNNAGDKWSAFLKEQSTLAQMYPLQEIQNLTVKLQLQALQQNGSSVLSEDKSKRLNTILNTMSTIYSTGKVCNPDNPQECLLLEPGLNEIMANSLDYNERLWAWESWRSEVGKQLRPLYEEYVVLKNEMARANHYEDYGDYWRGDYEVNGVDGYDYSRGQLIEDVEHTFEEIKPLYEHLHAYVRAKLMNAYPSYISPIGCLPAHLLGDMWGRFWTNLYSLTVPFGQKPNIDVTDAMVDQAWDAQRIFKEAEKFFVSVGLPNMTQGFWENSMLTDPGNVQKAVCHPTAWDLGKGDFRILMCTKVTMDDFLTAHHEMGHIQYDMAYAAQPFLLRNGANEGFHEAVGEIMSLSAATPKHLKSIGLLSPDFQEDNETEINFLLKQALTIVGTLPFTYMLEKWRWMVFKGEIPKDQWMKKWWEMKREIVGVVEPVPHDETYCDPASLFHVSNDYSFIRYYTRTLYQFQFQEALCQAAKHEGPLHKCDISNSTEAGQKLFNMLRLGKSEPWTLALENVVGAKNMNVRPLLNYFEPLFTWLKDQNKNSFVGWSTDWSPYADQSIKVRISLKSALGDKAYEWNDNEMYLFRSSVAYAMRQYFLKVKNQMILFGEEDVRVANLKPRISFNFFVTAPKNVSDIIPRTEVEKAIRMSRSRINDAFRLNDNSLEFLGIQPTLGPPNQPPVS

| Compound | Active (Y or N) [1] | also measured |
| --- | --- | --- |
| C1=Cc2nc1cc1ccc([nH]1)c(-c1ccccc1)c1nc(cc3ccc([nH]3)c2-c2ccccc2)C=C1 [5,15-diphenyl-21H,23H-porphine] | N |  |
| C=Cc1c(C)c2cc3nc(c(CC(=O)O)c4[nH]c(cc5nc(cc1[nH]2)C(C)=C5CC)c(C)c4C(=O)O)[C@@H](CCC(=O)O)[C@@H]3C [Chlorin E6] | Y (weak) | IC50 ([1]; read-out: IC50): 5000 nM |
| C=Cc1c(C)c2cc3nc(c4c5[n-]c(cc6nc(cc1[n-]2)C(C)=C6CC)c(C)c5C(=O)[C@@H]4C(=O)OC)[C@@H](CCC(=O)OC/C=C(\C)CCC[C@H](C)CCC[C@H](C)CCCC(C)C)[C@@H]3C.[Mg+2] [Chlorophyll A] | N |  |
| C=Cc1c(C)c2cc3nc(c4c5[n-]c(cc6nc(cc1[n-]2)C(C=O)=C6CC)c(C)c5C(=O)[C@@H]4C(=O)OC)[C@@H](CCC(=O)OC/C=C(\C)CCC[C@H](C)CCC[C@H](C)CCCC(C)C)[C@@H]3C.[Mg+2] [Chlorophyll B] | N |  |
| C=Cc1c(C)c2cc3nc(c4c5[nH]c(cc6nc(cc1[nH]2)C(C)=C6CC)c(C)c5C(=O)[C@@H]4C(=O)OC)[C@@H](CCC(=O)O)[C@@H]3C [Pheophorbide A] | Y | antiviral activity under light exposure versus dark [2]: generally improved; antiviral activity without photoactivation [2]: exhibit antiviral activity in the dark; antiviral effect with pre-treatment versus treatment after infection [2]: more pronounced; inhibition of SARS-CoV-2 infection in culture [2]: significantly inhibits; IC50 [1]: 500 nM; inhibition of the binding of SARS-CoV-2 Spike protein to ACE2 (in words) [1]: dose dependent decrease in binding; also recorded: dose-dependent inhibition; toxicity to the infected cells relative to antiviral doses [3]: antiviral activity was detected at doses lower than the dosing where pheophorbide A was toxic |
| C1=Cc2cc3ccc(cc4nc(cc5ccc(cc1n2)[nH]5)C=C4)[nH]3 [Porphine] | N |  |
| C=CC1=C(C)c2cc3[nH]c(cc4nc(cc5[nH]c(cc1n2)c(C)c5CCC(=O)O)C(CCC(=O)O)=C4C)c(C)c3C=C [Protoporphyrin IX] |  | IC50 [1]: 1200 nM |
| C[n+]1ccc(-c2c3nc(c(-c4cc[n+](C)cc4)c4ccc([nH]4)c(-c4cc[n+](C)cc4)c4ccc([nH]4)c(-c4cc[n+](C)cc4)c4nc2C=C4)C=C3)cc1 [TmPyP4] | N |  |
| Coproporphyrin III | N |  |
| MnTBAP | N |  |
| N-Methyl Mesoporphyrin | N |  |
| N-Methyl Protoporphyrin | N |  |
| Verteporfin | Y | IC50 ([1]; read-out: IC50): 225 nM |
| Vitamin B12 | N | inhibition of the binding of SARS-CoV-2 Spike protein to ACE2 (in words) [1]: non-active |
